The source of these data is ChEMBL document CHEMBL4376868, “Structure-Activity Relationship Study of Novel 6-Aryl-2-benzoyl-pyridines as Tubulin Polymerization Inhibitors with Potent Antiproliferative Properties” (J Med Chem, 2020).

The test system of one series is DU-145. Put plainly: Antiproliferative activity against human DU145 cells measured after 72 hrs by MTS assay. Format: functional, cell-based. To be noted: DU-145, 72 h. Background: Tetrazolium assays rely on reduction of a dye to a coloured formazan, in cell work by metabolically active cells.
The test system of the next series is M14. Description: Antiproliferative activity against human M14 cells measured after 72 hrs by MTS assay. The class given is functional, cell-based. Particulars: M14, 72 h.
The nature of series [1]: Antiproliferative activity against human PC3/TxR cells measured after 72 hrs by MTS assay. The class given is functional, cell-based.
Series [2] can be described thus: Antiproliferative activity against human DU145-TxR cells measured after 72 hrs by MTS assay. Format: functional, cell-based.
In a further series the test system is PC-3. Description: Antiproliferative activity against human PC3 cells measured after 72 hrs by MTS assay. Format: functional, cell-based. To be noted: PC-3, 72 h.
A short description of series [3]: Antiproliferative activity against human M14/LCC6MDR1 cells measured after 72 hrs by MTS assay. The class given is functional, cell-based.
The subject of series [4] is A-375. Description: Antitumor activity against human A375 cells xenografted in NSG mouse assessed as reduction in tumor volume at 20 mg/kg, ip administered 5 times per week for 14 days relative to control. The class given is functional. On the set-up: scale not given: the % may be the effect or the level left. (In general: In xenograft studies the graft and the host belong to different species.)

The subject of series [5] is A-375. Put plainly: Antitumor activity against human A375 cells xenografted in NSG mouse assessed as reduction in tumor size at 10 to 20 mg/kg, ip administered 5 times per week for 14 days by digital caliper method. The class given is functional, organism-based.
In series [6] the test system is A-375. Description: Antiproliferative activity against human A375 cells measured after 72 hrs by MTS assay. Format: functional, cell-based. To be noted: A-375, 72 h.
The subject of another series is RPMI-7951. Description: Antiproliferative activity against human RPMI7951 cells measured after 72 hrs by MTS assay. The class given is functional, cell-based. Particulars: RPMI-7951, 72 h.
For series [7], the system named is A-375. Description: Antitumor activity against human A375 cells xenografted in ip dosed NSG mouse assessed as tumor growth inhibition administered 5 times per week for 14 days. Format: functional, organism-based.
Series [8] can be described thus: Resistance index, ratio of IC50 for antiproliferative activity against human M14/LCC6MDR1 cells to IC50 for antiproliferative activity against human M14 cells. Format: functional.
The next series relates to MDA-MB-453. Description: Antiproliferative activity against human MDA-MB-453 cells measured after 72 hrs by MTS assay. Format: functional, cell-based. To be noted: MDA-MB-453, 72 h.
For series [9], the target named is T1, Tubulin (Sus scrofa) (UniProt P02554+P02550). Description: Inhibition of porcine brain tubulin polymerization at 10 uM measured at 30 secs interval for 65 mins by spectrophotometric method.
T1 sequence (P02550 whole entry, looked up): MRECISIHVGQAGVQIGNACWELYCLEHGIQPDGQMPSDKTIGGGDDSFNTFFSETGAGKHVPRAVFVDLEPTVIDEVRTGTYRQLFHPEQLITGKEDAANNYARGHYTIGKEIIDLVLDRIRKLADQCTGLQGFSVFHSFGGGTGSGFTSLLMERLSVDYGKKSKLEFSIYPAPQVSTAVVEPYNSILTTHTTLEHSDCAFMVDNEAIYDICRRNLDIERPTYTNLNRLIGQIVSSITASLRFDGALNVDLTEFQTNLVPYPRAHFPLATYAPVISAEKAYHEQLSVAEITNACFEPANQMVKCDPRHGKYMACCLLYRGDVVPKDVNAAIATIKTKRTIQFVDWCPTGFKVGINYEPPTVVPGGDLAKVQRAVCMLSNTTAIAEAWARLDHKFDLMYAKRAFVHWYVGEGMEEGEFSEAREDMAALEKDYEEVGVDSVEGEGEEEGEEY
T1 sequence (P02554 whole entry, looked up): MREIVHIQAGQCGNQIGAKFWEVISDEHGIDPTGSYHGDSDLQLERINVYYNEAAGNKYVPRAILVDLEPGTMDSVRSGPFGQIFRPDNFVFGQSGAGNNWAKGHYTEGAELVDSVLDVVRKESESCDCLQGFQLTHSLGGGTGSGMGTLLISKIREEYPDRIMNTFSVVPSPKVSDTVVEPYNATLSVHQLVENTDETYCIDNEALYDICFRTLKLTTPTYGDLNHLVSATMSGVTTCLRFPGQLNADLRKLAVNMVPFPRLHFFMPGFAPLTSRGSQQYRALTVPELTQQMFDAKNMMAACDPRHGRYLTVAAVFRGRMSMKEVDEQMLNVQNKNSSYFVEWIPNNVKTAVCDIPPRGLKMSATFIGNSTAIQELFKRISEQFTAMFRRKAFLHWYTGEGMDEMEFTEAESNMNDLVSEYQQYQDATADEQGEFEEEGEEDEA
In series [10] the test system is A-375. Description: Antitumor activity against human A375 cells xenografted in ip dosed NSG mouse assessed as suppression of tumor growth by measuring decrease in number Ki67 positive cells administered 5 times per week for 14 days measured post-last dose by immunohistochemical analysis. The class given is functional, organism-based.
Series [11] addresses T2, Tubulin (Sus scrofa, UniProt P02554+P02550). Put plainly: (§1) Binding affinity to porcine brain tubulin polymerization by surface plasmon analysis analysis.
Series [12] deals with T1, Tubulin (Sus scrofa). The description is as §1.
A short description of series [13]: Resistance index, ratio of IC50 for antiproliferative activity against human PC3/TxR cells to IC50 for antiproliferative activity against human PC3 cells. The class given is functional.
Series [14] has as its system A-375. Description: Antitumor activity against human A375 cells xenografted in NSG mouse assessed as reduction in tumor weight at 10 mg/kg, ip administered 5 times per week for 14 days relative to control. The class given is functional. On the set-up: scale not given: the % may be the effect or the level left.
The subject of series [15] is A-375. Put plainly: Antitumor activity against human A375 cells xenografted in NSG mouse assessed as reduction in tumor weight at 20 mg/kg, ip administered 5 times per week for 14 days relative to control. Format: functional. Also noted: scale not given: the % may be the effect or the level left.
Series [16] deals with A-375. Description: Antitumor activity against human A375 cells xenografted in NSG mouse assessed as disruption of tumor vasculature development by measuring decrease in CD31 staining at 10 to 20 mg/kg, ip administered 5 times per week for 14 days measured post-last dose by immunohistochemical analysis. The class given is functional, organism-based.
Another series deals with SK-BR-3. Description: Antiproliferative activity against human SK-BR-3 cells measured after 72 hrs by MTS assay. Format: functional, cell-based. Particulars: SK-BR-3, 72 h.
Series [17] has as its system A-375. Put plainly: Antitumor activity against human A375 cells xenografted in NSG mouse assessed as tumor necrosis at 10 to 20 mg/kg, ip administered 5 times per week for 14 days measured post-last dose by H and E staining-based microscopic analysis. Format: functional, organism-based.
The next series has as its system MDA-MB-231. Description: Antiproliferative activity against human MDA-MB-231 cells measured after 72 hrs by MTS assay. The class given is functional, cell-based. Particulars: MDA-MB-231, 72 h.
For series [18], the target named is T2, Tubulin. Description: (§2) Inhibition of porcine brain tubulin polymerization measured at 30 secs interval for 65 mins by spectrophotometric method.
Series [19] concerns the target T1, Tubulin (Sus scrofa). The series is described as §2.
The nature of series [20]: Toxicity in human A375 cells xenografted NSG mouse assessed as decrease in body weight loss at 10 to 20 mg/kg, ip administered 5 times per week for 14 days measured 3 times a week during compound dosing. The class given is organism-based. Particulars: in vivo, 336 h.
The nature of series [21]: Resistance index, ratio of IC50 for antiproliferative activity against human DU145-TxR cells to IC50 for antiproliferative activity against human DU145 cells. Format: functional.
For series [22], the system named is A-375. Description: Antitumor activity against human A375 cells xenografted in NSG mouse assessed as increase in cleaved PARP level at 10 to 20 mg/kg, ip administered 5 times per week for 14 days measured post-last dose by immunohistochemical analysis. The class given is functional, organism-based.
The test system of series [23] is A-375. Put plainly: Antitumor activity against human A375 cells xenografted in NSG mouse assessed as reduction in tumor volume at 10 mg/kg, ip administered 5 times per week for 14 days relative to control. The class given is functional. On the set-up: scale not given: the % may be the effect or the level left.

The source made the active and inactive calls. No cut-off for these calls is given here.

Usually IC50 stands for the concentration that inhibits the measured activity by half. As to `COc1cc2c(c(OC)c1OC)-c1ccc(OC)c(=O)cc1[C@@H](NC(C)=O)CC2` [COLCHICINE], the half-inhibitory concentration (IC50) in the series with DU-145 is 17.3 nM; in the series on M14, 9.3 nM; in series [1], 56.3 nM; in [2], above 1000 nM; in the series with PC-3, 19 nM; in series [3], 1400 nM.
Broadly, the Kd is the free concentration of one partner at which half of the binding sites on the other are occupied at equilibrium, for simple one-to-one binding. In the case of `COc1cc(C(=O)c2cccc(-c3ccc(C)c(O)c3)n2)cc(OC)c1OC`, the Activity in the series on A-375 [4] is 88.5%; in the series with A-375 [10], “Dose-dependent effect”; on Tubulin (Sus scrofa) [12], “Dose-dependent effect”; in the series with A-375 [14] it was 48.81%; in the series with A-375 [15] it was 83.33%; in [20], “Non-Toxic”. Further, in the series on A-375 [23], the Activity came out at 58.54%. Moreover, the outcome with A-375 [5], in the series on A-375 [16], in the series with A-375 [17] and with A-375 [22] was Active. For the same compound, the IC50 with A-375 [6] is 1.5 nM; in the series on DU-145, 3.7 nM; in the series with RPMI-7951, 1.7 nM; with MDA-MB-453, 1.2 nM; in the series on M14, 0.9 to 1.7 nM; in series [1], 2.5 nM. The half-inhibitory concentration (IC50) in series [2] was 2.8 nM; with SK-BR-3, 2.8 nM; in the series on MDA-MB-231, 1.7 nM; with PC-3, 1.7 nM; against Tubulin [18], 5000 to 10000 nM; in series [3], 1.4 nM. Moreover, the TGI entry with A-375 [7] was “Dose-dependent effect”. In addition, the “Ratio IC50” value is 1.5 in series [8], 1.5 in [13] and 0.8 in [21]. Further, the inhibition entry on Tubulin (Sus scrofa) [9] was “Active”. The Kd on Tubulin [11] was 2660 nM. The inhibition result on Tubulin (Sus scrofa) [19] was “Dose-dependent effect”.
`CC(=O)O[C@H]1C(=O)[C@@]2(C)[C@H]([C@H](OC(=O)c3ccccc3)[C@]3(O)C[C@H](OC(=O)[C@H](O)[C@@H](NC(=O)c4ccccc4)c4ccccc4)C(C)=C1C3(C)C)[C@]1(OC(C)=O)CO[C@@H]1C[C@@H]2O` [PACLITAXEL]: the IC50 was 148 nM in [1], above 1000 nM in series [2], 1.9 nM in the series with PC-3 and 200 nM in [3].
